Values of other authors as cited in patent US8202852B2, “Creatine phosphate analog prodrugs, compositions and uses thereof” (XenoPort, Inc., priority 2006, dated 2012).
Read-outs that look alike come from different tables or passages of the source.

Legend:
[1] = not given; remark: listed apart in the source
[2] = animals, diet containing up to 1%

In the case of `CN(CC(=O)O)C(=N)N.O` [creatine monohydrate], the adverse side effects (athletes and body builders, 2-3 gm/day) is listed as “without adverse side effects”.
In the case of `CN(CC(=O)O)C(=N)NP(=O)(O)O` [creatine phosphate], the adverse side effects (patients with cardiac diseases, intravenous injection up to 8 gm/day) is listed as “without adverse side effects”.
For `CN(CC(=O)O)C(=N)N` [creatine, Creatine], the “overall increase in creatine phosphate levels” value ([1]; creatine supplementation, typically takes weeks) is listed as under 50% and the “increase in cerebral creatine phosphate” value ([1]; healthy volunteers, oral creatine administration) is listed as “about 10%”.
For `NC1=NCCN1CC(=O)O` [cyclocreatine], the adverse effects [2] is given as “do not exhibit adverse effects”.
